B1: BMP-4: recombinant human bone morphogenetic protein 4 (BMP-4) (Sigma) (protein, UniProt P12644 293-408, looked up)
Bone morphogenetic protein 4: SPKHHSQRARKKNKNCRRHSLYVDFSDVGWNDWIVAPPGYQAFYCHGDCPFPLADHLNSTNHAIVQTLVNSVNSSIPKACCVPTELSAISMLYLDEYDKVVLKNYQEMVVEGCGCR

Legend:
C3H10T1/2 cells [1] = test: Alkaline phosphatase (ALP) enzymatic assay in C3H10T1/2 cells; assay type: cell-based, mouse
Method: Alkaline Phosphatase Assay: C3H10T1/2 cells were expanded in T175 flasks; cells at the 13th passage were detached by trypsin/EDTA and diluted in the growth media. The resulting cell suspension was then plated into black clear bottom 384-well plates (Greiner) with 2500 cells/well in 100 μL growth media using a Multi-dropTM liquid delivery system (Titertek Instruments). After an overnight incubation, cells were attached to the bottom of the wells. A stock solution of Compound A in DMSO (500 nL) was delivered into corresponding well using a Mini TrakTM multiposition dispenser system (Packard BioScience) to make the final concentration of 5 μM of each compound. Cells were then incubated at 37° C. in 5% CO2. After 4 days, the media was removed and 10 μL of Passive Lysis Buffer (Promega) was added into each well. After 5 min, 10 μL of alkaline phosphatase substrate solution (1 mM in pH 10 buffer, 2'-[2'-benzothiazoyl]-6'-hydroxybenzothiazole phosphate (Promega) was added to each well. After a 15 minute incubation at room temperature, the plates were read on an Acquest high-throughput plate reader (Molecular Devices) using the manufacturer's protocol. C3H10T1/2 cells were treated with DMSO (control), BMP-4(300 ng/mL), BMP-4 (100 ng/mL) and Compound A (1 μM), or 0.5 μ[…], or 10 μM Compound A. Alkaline phosphatase (ALP) activity was measured as described in Example 2 above, after two, four, and six days of treatment.

[2] = system: Cbfa1/Runx2 gene promoter; test: Cbfa1/Runx2 reporter gene assay, transiently transfected C3H10T1/2 cells; assay type: cell-based, mouse
Excerpt: (§1) Cbfa1/Runx2 Reporter Gene Assay: The murine Cbfa1/Runx2 gene promoter region (1818 bp) was amplified by PCR from mouse genomic DNA library (Clontech) using the following primers: The resulting PCR product was inserted into Topo cloning vector (Invitrogen), amplified and sequenced. The resulting plasmid was digested with restriction enzymes Mlu and XhoI (New England Biolab) and the 1.8 kb fragment was inserted into the Mlu/XhoI cloning sites in pGL3-BV luciferase reporter vector (Promega). For transient transfection assays, cells were seeded in a 6-well plate at a density of 30,000 cells/well in 2 mL of growth medium. After an overnight incubation, the cells reached 80% confluency. Plasmid DNA (1 μg) was transfected into cells using 3 μL of Fugene 6 transfection reagent (Roche) using the manufacturer's protocol. After 8 hours, the transfected cells were plated into 96-well assay plates (Corning) and treated with 300 ng/mL of recombinant human bone morphogenetic protein 4 (BMP-4) (Sigma), 1% DMSO (Sigma) or different concentrations of Compound A (dissolved in DMSO). The cells were incubated for 4 days, then the luciferase activity in the cells was assayed using the Bright-Glo luciferase assay kit (Promega) using the manufacturer's protocol. Luminescence signals were detected by Acquest AD (Molecular Devices) plate reader. […]

[3] = system: Cbfa1/Runx2 gene promoter; test: Cbfa1/Runx2 reporter gene assay, stably transfected MC3T3-E1 cells; assay type: cell-based, mouse
Excerpt: as §1, with “For transient transfection assays, cells were seeded in a 6-well plate at a density of 30,000 cells/well in 2 mL of growth medium.” left out, “reader. Due to the low transfection efficiency of MC3T3-E1 cells, the Cbfa1/Runx2 reporter assay was carried out with stably transfected MC3T3-E1 cells.” for “reader.”

C3H10T1/2 cells [4] = test: Histochemical staining for endogenous alkaline phosphatase expression in C3H10T1/2 cells; assay type: cell-based, mouse; details: 4 days; for cells stained positive for ALP: Compound A 2 μM, BMP-4 300 ng/mL
Method: Histochemical Staining for Endogenous Alkaline Phosphatase Expression: C3H10T1/2 cells were seeded in 96-well assay plates (Corning) at a density of 10,000 cells/well, and treated with 300 ng/mL of BMP-4, 1% DMSO, 2 μM of Compound A, or 100 ng/mL of BMP and 1 μM of Compound A for 4 days. The cells were then washed 3 times with 200 μL PBS and fixed by a 15 minute incubation in a 10% formalin solution (Sigma). The fixed cells were washed again with 3 times with 200 μL PBS and stained with the Alkaline Phosphatase Staining Kit 86R (Sigma Diagnostics) using the manufacturer's protocol. The images were taken on a Nikon Eclipse TE300 microscope, and ALP positive cells were counted manually from the images.
C3H10T1/2 cells were treated with DMSO (a), 300 ng/mL of BMP-4 (b), 2 μM of Compound A (c), and 100 ng/mL of BMP and 1 μM of Compound A (d) for 4 days and stained for ALP activity. ALP positive cells were stained red and the cell nuclei were stained blue.

3T3-L1 cells = test: Alkaline phosphatase (ALP) activity in 3T3-L1 pre-adipocyte cells; assay type: cell-based, mouse
Method: Alkaline Phosphatase Assay: C3H10T1/2 cells were expanded in T175 flasks; cells at the 13th passage were detached by trypsin/EDTA and diluted in the growth media. The resulting cell suspension was then plated into black clear bottom 384-well plates (Greiner) with 2500 cells/well in 100 μL growth media using a Multi-drop™ liquid delivery system (Titertek Instruments). After an overnight incubation, cells were attached to the bottom of the wells. A stock solution of Compound A in DMSO (500 nL) was delivered into corresponding well using a Mini Trak™ multiposition dispenser system (Packard BioScience) to make the final concentration of 5 μM of each compound. Cells were then incubated at 37° C. in 5% CO2. […] After 5 min, 10 μL of alkaline phosphatase substrate solution (1 mM in pH 10 buffer, 2′-[2′-benzothiazoyl]-6′-hydroxybenzothiazole phosphate (Promega) was added to each well. After a 15 minute incubation at room temperature, the plates were read on an Acquest high-throughput plate reader (Molecular Devices) using the manufacturer's protocol.
(§2) 3T3-L1 cells, C2C12 cells, and MC-3T3E1 cells were treated with DMSO (control), BMP-4(300 ng/mL), BMP-4 (100 ng/mL) and Compound A (1 μM), or 0.1 μM, 0.5 μM, 1 μM, 5 μM, or 10 μM Compound A. ALP activity was measured as described in Example 1 above, after four days of treatment.

[5] = system: Cbfa1/Runx2 gene promoter; test: Cbfa1/Runx2 reporter gene assay in 3T3-L1 cells; assay type: cell-based, mouse; details: 3T3-L1 pre-adipocyte cells
Excerpt: as §1

[6] = system: Cbfa1/Runx2 gene promoter; test: Cbfa1/Runx2 reporter gene assay in C2C12 cells; assay type: cell-based, mouse
Excerpt: as §1

C3H10T1/2 cells [7] = test: Morphology of C3H10T1/2 cells under light microscopy; assay type: cell-based, mouse; details: 2 μM for 4 days
Method: C3H10T1/2 cells were treated with DMSO (1%) and Compound A (purmorphamine) (2 μM) for 4 days. C2C12 cells were treated with DMSO (1%), Compound A (purmorphamine) (2 μM) or BMP-4 (300 ng/mL) for 4 days. The morphology of the cells was examined under light microscopy.

[8] = system: alkaline phosphatase, collagen type I and osteoponin; test: Morphological and transcriptional analysis of osteogenesis (FIG. 5); assay type: cell-based
MC3T3-E1 cells = test: Terminal differentiation of MC3T3-E1 pre-osteoblast cells; assay type: cell-based, mouse
Excerpt: Mouse MC3T3-E1 cells are progenitor cells committed to an osteoblast lineage. […] Since MC3T3-E1 cells already have high levels of endogenous Cbfa1/Runx2, slight up-regulation of this gene may be sufficient to promote terminal differentiation (see, e.g., Xiao et al., J. Cell. Biochem. 74:596 (1999) and Wang et al., J. Bone. Miner. Res. 14:893 (1999)). The change of Cbfa1/Runx2 reporter activity in stably transfected MC3T3-E1 cells is not dramatic when treated with Compound A.
as §2

EC50 (C3H10T1/2 cells [1]; Mus musculus, C3H 10T1/2, ALP enzymatic assay, C3H10T1/2 cells) [µM] | expression of alkaline phosphatase, collagen type I and osteoponin ([8]; FIG. 5A) | Molecule | effectiveness in inducing the expression of ALP compared with BMP-4 (C3H10T1/2 cells [1]; C3H10T1/2 cells, FIG. 1) | increase in ALP (C3H10T1/2 cells [1]; after treatment for 4 days, compared with 1% DMSO treatment) [fold] | Cbfa1 gene upregulation ([2]; C3H10T1/2 cells, FIG. 4B) | increase in Cbfa1/Runx2 reporter activity ([2]; treatment for 4 days, transient transfection) | change of Cbfa1/Runx2 reporter activity [3] | cells stained positive for ALP (C3H10T1/2 cells [4]) | increase in ALP level (3T3-L1 cells; optimal concentration of 5 μM) [fold] | Cbfa1/Runx2 expression [5] | Cbfa1/Runx2 gene expression [6] | morphology of the cells (C3H10T1/2 cells [7]) | DNA microarray analysis ([8]; FIG. 5B) | terminal differentiation of MC3T3-E1 cells (MC3T3-E1 cells) | ALP expression level of induced cells compared to cells treated with Compound A (C3H10T1/2 cells [4]; histochemical staining) | induction of ALP expression (3T3-L1 cells; BMP-4 alone)
1 | induces expression | c1ccc2c(Oc3nc(Nc4ccc(N5CCOCC5)cc4)c4ncn(C5CCCCC5)c4n3)cccc2c1 [Compound A, 2-(1-Naphthoxy)-6-(4-morpholinoanilino)-9-cyclohexylpurine] | more effective than BMP-4 | > 50 | induces Cbfa1 gene upregulation | more than 6 fold | not dramatic | more than 80% | 9 | induces Cbfa1/Runx2 expression | can be induced by Compound A to express the Cbfa1/Runx2 gene | changed from fibroblast (long and spindle-shaped) to osteocyte (small and round) | induces expression of a number of transcription factors and proteins | promote the terminal differentiation |  | 
 |  | B1 |  |  |  |  |  | 40% |  |  |  |  |  | promote the terminal differentiation | higher expression level of ALP | more than 40 fold

Source: US7273864B2, “Compositions and methods for inducing osteogenesis” (The Scripps Research Institute, priority 2002, dated 2007)
